Reference: patent US12421199B2, “Sphingosine 1 phosphate receptor modulators” (RECEPTOS LLC, priority 2020, dated 2025)

Key:
[1] = molecular target: T1, S1P1 (Homo sapiens, UniProt P21453); experiment: [35S]-GTPγS binding assay, S1P1; format: biochemical; details: CHO-S1P receptor membranes; for Emax: control S1P, read-out: S1P1 % Efficacy
T1 construct: expressed in transfected cells; host or cells: CHO cell membranes
Experimental: (§1) Binding assays for [35S]-GTPTS were performed in 96-well non-binding surface plates with a final volume of 200 μL. The test compounds were serial diluted in DMSO and added to assay plates using a Tecan D300E digital printer with a total volume of 0.4 μL. The control sphingosine-1-phosphate (S1P) was prepared separately by preparing a 400 μM stock solution from a 100 nmol pellet of S1P in 10 mM Na2CO3 with 2% […]. The serial dilution of S1P was done using complete assay buffer (20 mM HEPES, 10 mM MgCl2, 100 mM NaCl, 1 mM EDTA, 0.1% fatty acid free bovine serum albumin [BSA], and 30 μg/mL saponin, pH7.4) and transferred to wells already containing 0.4 μL DMSO. All the wells were then loaded to a total volume of 40 μL of complete assay buffer, except the non-specific binding (NSB) wells. For NSB wells, 40 µL/well of 50 μM GTPTS (Sigma Aldrich, cat #G8634, St. Louis, MO) was added to wells containing 0.4 μL of DMSO. The assay was started by the addition of 120 μL/well of CHO-S1P receptor membrane solution containing 40 μg/mL of membrane protein, 16.67 μM guanosine diphosphate (GDP; Sigma Aldrich, cat #G7127, St. Louis, MO), and 2.5 mg/mL of WGA PVT SPA beads in complete buffer. Assay plates were then sealed and incubated at room temperature with gentle agitation for 30 minutes. Next, 40 μL/well of 1 nM of [^35S]-GTPTS (PerkinElmer, cat #NEG030X250UC, Waltham, MA) in basic assay buffer (20 mM HEPES, 10 mM MgCl2, 100 mM NaCl, and 1 mM EDTA, pH7.4) was added to the assay plates to yield a final concentration of […] and the plates were further incubated for 40 minutes at room temperature with gentle agitation. The assay was terminated by centrifugation of the plates at 1000 rpm for 3 minutes using an Eppendorf 5810R centrifuge (Eppendorf, Hamburg, Germany) and G protein bound radioactivity was quantitated using a MicroBeta2 microplate scintillation counter (PerkinElmer, Waltham, MA).

[2] = molecular target: T2, S1P5 (Homo sapiens, UniProt Q9H228); experiment: [35S]-GTPγS binding assay, S1P5; format: biochemical; details: CHO-S1P receptor membranes; for Emax: control S1P, read-out: S1P5 % Efficacy
T2 construct: expressed in transfected cells; host or cells: CHO cell membranes
Experimental: as §1

T2 sequence (Q9H228 whole entry, species assumed): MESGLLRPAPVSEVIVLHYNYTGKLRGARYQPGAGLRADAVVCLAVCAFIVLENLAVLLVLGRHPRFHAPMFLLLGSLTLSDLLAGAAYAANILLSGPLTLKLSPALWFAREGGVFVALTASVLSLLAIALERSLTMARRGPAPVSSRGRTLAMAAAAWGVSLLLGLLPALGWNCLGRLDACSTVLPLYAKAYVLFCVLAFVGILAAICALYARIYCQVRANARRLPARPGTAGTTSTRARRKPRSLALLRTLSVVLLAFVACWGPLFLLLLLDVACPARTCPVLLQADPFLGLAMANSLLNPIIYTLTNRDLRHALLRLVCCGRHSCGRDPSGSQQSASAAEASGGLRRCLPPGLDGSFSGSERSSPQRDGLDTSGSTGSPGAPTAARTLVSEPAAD
T1 sequence (P21453 whole entry, species assumed): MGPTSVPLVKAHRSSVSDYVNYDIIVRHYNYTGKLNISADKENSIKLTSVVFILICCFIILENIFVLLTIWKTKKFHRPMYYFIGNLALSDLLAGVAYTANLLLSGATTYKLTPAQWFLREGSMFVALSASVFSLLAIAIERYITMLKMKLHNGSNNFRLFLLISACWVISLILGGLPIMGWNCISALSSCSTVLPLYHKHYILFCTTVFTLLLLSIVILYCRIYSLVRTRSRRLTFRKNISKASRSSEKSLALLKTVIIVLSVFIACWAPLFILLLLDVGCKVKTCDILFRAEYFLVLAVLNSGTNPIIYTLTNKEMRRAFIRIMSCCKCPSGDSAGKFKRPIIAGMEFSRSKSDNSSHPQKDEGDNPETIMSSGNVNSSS

EC50 [1] [nM]	Emax [1] [%]	EC50 [2] [nM]	Emax [2] [%]	Structure (SMILES)
14	97	147	80	CCC1(O)CCc2c(-c3noc(-c4ccc(OC(C)C)c(C#N)c4)n3)cccc21 (centres unmarked) [compound 3, 5-(3-(1-ethyl-1-hydroxy-2,3-dihydro-1H-inden-4-yl)-1,2,4-oxadiazol-5-yl)-2-isopropoxybenzonitrile]
7	97	77	74	CC(C)Oc1ccc(-c2nc(-c3cccc4c3CCC4(O)C(C)C)no2)cc1C#N (centres unmarked) [compound 4, 5-(3-(1-hydroxy-1-isopropyl-2,3-dihydro-1H-inden-4-yl)-1,2,4-oxadiazol-5-yl)-2-isopropoxybenzonitrile]
